Results reported in patent US5096902A, “Heterocyclic compounds containing nitrogen and sulfur, pharmaceutical compositions containing them and process for preparing same” (Richter Gedeon Vegyeszeti Gyar Rt., priority 1989, dated 1992).
Like-named read-outs stand apart in the source and are kept apart here.

Assays:
[1] = test system: conscious mice; test: Normobaric hypoxia test (96% nitrogen / 4% oxygen) in conscious mice; assay type: in vivo; conditions: 50 mg/kg i.p.; for Survival time / response vs control in vivo at 50 mg/kg: 30 min before; for Survival time: three series with controls 6.32, 5.78 and 3.05 min; for response vs control in vivo at 50 mg/kg / responders at 50 mg/kg: Mus musculus, ip; for response vs control in vivo at 50 mg/kg: control = 100, read-out: Survival time, % (relative to control group); for responders at 50 mg/kg: protected = survival twice as long as control group, read-out: Protection
Source text: The antihypoxic activity was investigated on conscious mice under normobaric hypoxia. Five male mice each were placed in a glass cylinder of 3 liters volume, which a gaseous mixture containing 96% of nitrogen and 4% of oxygen was bubbled through. The interval passing from the accomodation of the animals until the cessation of their respiratory movement was registered as survival time. Animals surviving a time of two times as long as that of the control group, were considered to be protected.
Ten animals each were intraperitoneally (i.p.) given a dose of 50 mg/kg of body-weight (hereinafter abbreviated: mg/kg) each of the substances 30 minutes before the accommodation in the glass cylinders. The average time of survival, the percentage of elongation of survival time in comparison to that of the control group and the percentage of the animals protected are shown in Table I.

[2] = test system: mice; test: Asphyxial anoxia test; assay type: in vivo; conditions: Mus musculus; oral, mice starved 16 hours, 1 hour after treatment; protected = survival longer by 30% than control; probit analysis
Protocol: (§1) The antihypoxic effect of the compounds according to the invention was proven also by using the methods of asphyxial anoxia and hypobaric hypoxia. These investigations were carried out by oral administration also proving the oral efficiency which makes possible use of the active compounds according to the invention in a tablet form.
Mice starved for 16 hours were orally treated with the compounds according to the invention and after one hour, they were placed into well-closed glass bottles of 100 ml volume. The interval passing from closing the bottle until the cessation of the respiratory movement was registered as survival time. Animals surviving longer by 30% than that of average survival time of the control group, were considered to be protected.
(§2) In the cases of both methods, the ED50 values, i.e. the dose protecting half of the treated animals from the hypoxia, were calculated by using probit analysis.

[3] = test system: mice; test: Hypobaric hypoxia test; assay type: in vivo; conditions: Mus musculus; oral, mice starved 16 hours, 170 Hgmm, 1 hour after treatment; protected = survival twice control; probit analysis
Protocol: as §1
Mice starved for 16 hours were orally treated with the compounds according to the invention, and placed into a desiccator one hour following the treatment. The pressure in the desiccator was reduced to 170 Hgmm within 20 seconds and the survival time was registered from this time until the cessation of respiratory movement. Animals surviving twice as long as the average survival time of the control group were considered to be protected.
as §2

[4] = Toxicity (LD50) on mice; conditions: mouse, in vivo
Protocol: The toxicity of the active compound of Example 35a according to the invention was determined on mice.

For `O=C(CCN1CCSC1)c1ccccc1` [Example 1, 1-phenyl-3-(thiazolidinyl)propan-1-one], the Survival time [1] was 9.35 min, the response vs control in vivo at 50 mg/kg [1] was 148% and the responders at 50 mg/kg [1] was 30%.
`COc1ccc(C(=O)CCN2CCSC2)cc1` [Example 8] gave a Survival time [1] of 8.27 min, a response vs control in vivo at 50 mg/kg [1] of 131% and a responders at 50 mg/kg [1] of 20%.
Molecule `COc1ccc(C(=O)CCN2CCSC2)c(C)c1` [Example 12] has a Survival time [1] of 10.28 min, a response vs control in vivo at 50 mg/kg [1] of 178% and a responders at 50 mg/kg [1] of 40%.
With `O=C(CCN1CCSC1)c1ccc(Cl)cc1` [Example 17] the Survival time [1] was 11.00 min, the response vs control in vivo at 50 mg/kg [1] was 174% and the responders at 50 mg/kg [1] was 60%. For the same molecule, the ED50 [2] was 55 mg/kg and the ED50 [3] was 60 mg/kg.
In the case of `O=C(CCN1CCSC1)c1ccc(Br)cc1` [Example 18], the Survival time [1] is reported as 10.58 min, the response vs control in vivo at 50 mg/kg [1] is reported as 167% and the responders at 50 mg/kg [1] is reported as 50%.
For `O=C(CCN1CCSC1)c1ccc(Cl)c(Cl)c1` [Example 19], the Survival time [1] was 7.90 min, the response vs control in vivo at 50 mg/kg [1] was 125% and the responders at 50 mg/kg [1] was 20%.
Work on `O=C(CCN1CCSC1)c1cccc([N+](=O)[O-])c1` [Example 20] yielded a Survival time [1] of 7.85 min, a response vs control in vivo at 50 mg/kg [1] of 136% and a responders at 50 mg/kg [1] of 20%.
With `CC(CN1CCSC1)C(=O)c1ccccc1` (stereo not drawn) [Example 22] the Survival time [1] was 9.27 min, the response vs control in vivo at 50 mg/kg [1] was 147% and the responders at 50 mg/kg [1] was 30%.
`CC(CN1CCSC1)C(=O)c1ccc(F)cc1` (stereo not drawn) [Example 27] gave a Survival time [1] of 5.32 min, a response vs control in vivo at 50 mg/kg [1] of 174% and a responders at 50 mg/kg [1] of 20%.
In the case of `CC(CN1CCSC1)C(=O)c1ccc(Br)cc1` (stereo not drawn) [Example 30], the Survival time [1] is reported as 8.40 min, the response vs control in vivo at 50 mg/kg [1] is reported as 145% and the responders at 50 mg/kg [1] is reported as 40%.
In the case of `CSc1ccc(C(=O)CCN2CCSC2)cc1` [Example 34, 1-(4-methylthiophenyl)-3-(3-thiazolidinyl)propan-1-one], the Survival time [1] is reported as 12.76 min, the response vs control in vivo at 50 mg/kg [1] is reported as 202% and the responders at 50 mg/kg [1] is reported as 70%.
For `O=C(CCN1CCSC1)c1ccc(F)cc1` [Example 35a, 1-(4-fluorophenyl)-3-(3-thiazolidinyl)propan-1-one], the Survival time [1] was 10.75 min, the response vs control in vivo at 50 mg/kg [1] was 186% and the responders at 50 mg/kg [1] was 60%. For the same molecule, the ED50 [2] was 18.3 mg/kg, the LD50 ([4]; intravenous, read-out: LD50 intravenously) was 108 mg/kg and the LD50 ([4]; oral, read-out: LD50 orally) was 646 mg/kg. For the same molecule, the ED50 [3] was 58.7 mg/kg.
Work on `O=C(CCN1CCSC1)c1cccs1` [Example 37, 1-(2-thienyl)-3-(3-thiazolidinyl)propan-1-one] yielded a Survival time [1] of 12.22 min, a response vs control in vivo at 50 mg/kg [1] of 211% and a responders at 50 mg/kg [1] of 60%.
With `CCc1ccc(C(=O)CCN2CCSC2)s1` [Example 38] the Survival time [1] was 9.95 min, the response vs control in vivo at 50 mg/kg [1] was 172% and the responders at 50 mg/kg [1] was 30%.
`O=C(CCN1CCSC1)c1ccc(Cl)s1` [Example 39] gave a Survival time [1] of 10.43 min, a response vs control in vivo at 50 mg/kg [1] of 180% and a responders at 50 mg/kg [1] of 40%.
`CC(CN1CCSC1)C(=O)c1cccs1` (stereo not drawn) [Example 41] showed a Survival time [1] of 8.91 min, a response vs control in vivo at 50 mg/kg [1] of 154% and a responders at 50 mg/kg [1] of 20%.
`O=C(CCN1CCCSC1)c1ccc(-c2ccccc2)cc1` [Example 49] gave a Survival time [1] of 9.72 min, a response vs control in vivo at 50 mg/kg [1] of 154% and a responders at 50 mg/kg [1] of 30%.
In the case of `COC(=O)C1N(CCC(=O)c2ccc(F)cc2)CSC1(C)C` (stereo not drawn) [Example 70], the Survival time [1] is reported as 5.78 min, the response vs control in vivo at 50 mg/kg [1] is reported as 189% and the responders at 50 mg/kg [1] is reported as 60%.
